Measured values published in patent US8354416B2 (Glaxo Group Limited, priority 2005, dated 2013).
“Also recorded” adds a separate entry of the source.

System: influx of neutrophils to the lung in LPS-challenged rats
Test: Rat LPS neutrophilia model
Type: in vivo
Settings: intratracheal, LPS aerosol 100 ug/ml, in at least one of the range of conditions tested, significance p<0.05
In short: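 Compound given intratracheally (200 ul suspension, or dry powder blend) to isoflurane-anesthetized rats 15 min–24 hours before 15 min exposure to LPS aerosol (100 ug/ml). Four hours later, bronchoalveolar lavage cells were counted differentially. Data are % inhibition of neutrophils versus no-compound controls at a given concentration and pretreat time.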

| SMILES | inhibition of neutrophilia (neutrophil levels in airway lavage relative to no compound controls) |
| --- | --- |
| CCN(CC)CCCNc1nc(-c2cc(C(=O)N(C)C)ccc2C)c2ccc(=O)n(-c3c(F)cccc3F)c2n1 [Example 120, 3-[2-{[3-(diethylamino)propyl]amino}-8-(2,6-difluorophenyl)-7-oxo-7,8-dihydropyrido[2,3-d]pyrimidin-4-yl]-N,N,4-trimethylbenzamide] | statistically nonsignificant inhibition of neutrophilia; also recorded: inactive |
| Cc1ccc(C(=O)NC2CCCC2)cc1-c1nc(N2CCC(N3CCC(C)CC3)CC2)nc2c1ccc(=O)n2-c1c(F)cccc1F [Example 169, N-cyclopentyl-3-[8-(2,6-difluorophenyl)-2-(4-methyl-1,4′-bipiperidin-1′-yl)-7-oxo-7,8-dihydropyrido[2,3-d]pyrimidin-4-yl]-4-methylbenzamide] | statistically nonsignificant inhibition of neutrophilia |
| Cc1ccc(C(=O)NCC(F)(F)F)cc1-c1nc(N2CCC(N3CCC(C)CC3)CC2)nc2c1ccc(=O)n2-c1c(F)cccc1F [Example 172, 3-[8-(2,6-difluorophenyl)-2-(4-methyl-1,4′-bipiperidin-1′-yl)-7-oxo-7,8-dihydropyrido[2,3-d]pyrimidin-4-yl]-4-methyl-N-(2,2,2-trifluoroethyl)benzamide] | inactive |
| CCNC(=O)c1ccc(C)c(-c2nc(N3CCC(N4CCC(C)CC4)CC3)nc3c2ccc(=O)n3-c2c(F)cccc2F)c1 [Example 173, 3-[8-(2,6-difluorophenyl)-2-(4-methyl-1,4′-bipiperidin-1′-yl)-7-oxo-7,8-dihydropyrido[2,3-d]pyrimidin-4-yl]-N-ethyl-4-methylbenzamide] | statistically significant inhibition of neutrophilia |
| Cc1ccc(C(=O)Nc2ccc(F)cc2)cc1-c1nc(N2CCC(N3CCC(C)CC3)CC2)nc2c1ccc(=O)n2-c1c(F)cccc1F [Example 174, 3-[8-(2,6-difluorophenyl)-2-(4-methyl-1,4′-bipiperidin-1′-yl)-7-oxo-7,8-dihydropyrido[2,3-d]pyrimidin-4-yl]-N-(4-fluorophenyl)-4-methylbenzamide] | inactive |
| Cc1ccc(C(=O)NC2CCC2)cc1-c1nc(N2CCC(N3CCC(C)CC3)CC2)nc2c1ccc(=O)n2-c1c(F)cccc1F [Example 175, N-cyclobutyl-3-[8-(2,6-difluorophenyl)-2-(4-methyl-1,4′-bipiperidin-1′-yl)-7-oxo-7,8-dihydropyrido[2,3-d]pyrimidin-4-yl]-4-methylbenzamide] | inactive |
| Cc1ccc(C(=O)NC2CC2)cc1-c1nc(N2CCC(N3CCC(C)CC3)CC2)nc2c1ccc(=O)n2-c1c(F)cccc1F [Example 178, N-cyclopropyl-3-[8-(2,6-difluorophenyl)-2-(4-methyl-1,4′-bipiperidin-1′-yl)-7-oxo-7,8-dihydropyrido[2,3-d]pyrimidin-4-yl]-4-methylbenzamide] | statistically nonsignificant inhibition of neutrophilia |
| CCCNC(=O)c1cc(F)c(C)c(-c2nc(NCCCN(CC)CC)nc3c2ccc(=O)n3-c2c(F)cccc2F)c1 [Example 181, 3-[2-{[3-(diethylamino)propyl]amino}-8-(2,6-difluorophenyl)-7-oxo-7,8-dihydropyrido[2,3-d]pyrimidin-4-yl]-5-fluoro-4-methyl-N-propylbenzamide] | statistically nonsignificant inhibition of neutrophilia |
| CCN(CC)CCCNc1nc(-c2cc(C(=O)NC3CC3)cc(F)c2C)c2ccc(=O)n(-c3c(F)cccc3F)c2n1 [Example 185, N-cyclopropyl-3-[2-{[3-(diethylamino)propyl]amino}-8-(2,6-difluorophenyl)-7-oxo-7,8-dihydropyrido[2,3-d]pyrimidin-4-yl]-5-fluoro-4-methylbenzamide] | statistically nonsignificant inhibition of neutrophilia |

Target: T1, Recombinant human p38α (Homo sapiens, UniProt Q16539)
T1 construct: His; made in house
Test: Time-resolved fluorescence resonance energy transfer (TR-FRET) kinase assay (standard or low volume)
Type: biochemical
Settings: no IC50 at a concentration of less than 16 uM
Protocol: Time-Resolved Fluorescence Resonance Energy Transfer Kinase Standard Assay
(§1) Recombinant human p38α was expressed as a His-tagged protein. To activate this protein, 3 μM unactivated p38α was incubated in 200 mM Hepes pH 7.4, 625 mM NaCl, 1 mM DTT with 27 nM active MKK6 (Upstate), 1 mM ATP and 10 mM MgCl2 The activity of the MKK6-activated p38α was assessed using a time-resolved fluorescence resonance energy transfer (TR-FRET) assay.
Biotinylated-GST-ATF2 (residues 19-96, 400 nM final), ATP ([…]) and MgCl2 (5 mM final) in assay buffer (40 mM HEPES pH 7.4, 1 mM DTT) were added to wells containing 1 ul of various concentrations of compound or DMSO vehicle (3% final) in NUNC 384 well black plate. […] The degree of phosphorylation of GST-ATF2 was measured using a Packard Discovery plate reader (Perkin-Elmer Life Sciences, Pangbourne, UK) as a ratio of specific 665 nm energy transfer signal to reference europium 620 nm signal.
Time-Resolved Fluorescence Resonance Energy Transfer Kinase Low Volume Assay
as §1, with “pH7.4,” for “pH 7.4,”, “assay. […]” for “assay.”

T1 sequence (Q16539 whole entry): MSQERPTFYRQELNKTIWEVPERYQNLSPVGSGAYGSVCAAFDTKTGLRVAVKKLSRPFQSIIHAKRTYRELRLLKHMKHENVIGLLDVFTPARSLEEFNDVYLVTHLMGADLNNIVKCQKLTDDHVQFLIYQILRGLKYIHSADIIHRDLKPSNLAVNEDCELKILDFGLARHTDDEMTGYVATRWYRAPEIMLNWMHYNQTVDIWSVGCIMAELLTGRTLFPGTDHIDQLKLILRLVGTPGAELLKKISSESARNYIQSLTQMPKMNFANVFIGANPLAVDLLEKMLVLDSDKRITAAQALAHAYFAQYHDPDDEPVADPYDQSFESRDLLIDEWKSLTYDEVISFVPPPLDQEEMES

| SMILES | pIC50, TR-FRET kinase assay |
| --- | --- |
| CCN(CC)CCCNc1nc(-c2ccc(C(=O)O)cc2)c2ccc(=O)n(-c3c(F)cccc3F)c2n1 [Example 188(a), 4-[2-{[3-(diethylamino)propyl]amino}-8-(2,6-difluorophenyl)-7-oxo-7,8-dihydropyrido[2,3-d]pyrimidin-4-yl]benzoic acid] | less than 4.8 |

System: TNF-stimulated IL8 production by human neutrophils
Test: TNF-stimulated IL-8 production from human neutrophils
Settings: read-out: IC50, TNF-stimulated IL-8 production from human neutrophils, broad range of data upon multiple runs
Protocol: The effect of test compounds on TNF-stimulated IL8 production by human neutrophils is measured as follows. Neutrophils are prepared from blood obtained from consenting donors, using standard methods. Blood is collected in heparinized syringes and layered over histopaque (30 ml/20 ml). Following centrifugation, the red cell pellet is resuspended in PBS and purified over a dextran gradient. Red blood cells are lysed with water for 40 sec, remaining granulocytes collected by centrifugation and resuspended at 1.5×10^6 cells/ml. Cells are added (0.5-1 ml) to 48 well plates already containing compound at 1000× final concentration in neat DMSO or 10% DMSO in RPMI1640 with 10% FBS. TNF (final concentration 100 ng/ml) is used as the stimulus. Cells incubated for approximately 20 hrs at 37° C., 5% CO2. Levels of IL-8 in the cell free supernatant are determined by sandwich ELISA, and inhibition relative to a control with DMPO but no compound is calculated.

| SMILES | IC50 |
| --- | --- |
| CCN(CC)CCCNc1nc(-c2cc(C(=O)N(C)C)ccc2C)c2ccc(=O)n(-c3c(F)cccc3F)c2n1 [Example 120, 3-[2-{[3-(diethylamino)propyl]amino}-8-(2,6-difluorophenyl)-7-oxo-7,8-dihydropyrido[2,3-d]pyrimidin-4-yl]-N,N,4-trimethylbenzamide] | > 1 nM |
